Measured values: ChEMBL document CHEMBL4266030, “Molecular Basis for Multiple Omapatrilat Binding Sites within the ACE C-Domain: Implications for Drug Design” (J Med Chem, 2018)

Columns and labels:
[1] = target: T1, Angiotensin-converting enzyme (Homo sapiens, UniProt P12821); experiment: Inhibition of human fully glycosylated ACE C-terminal domain expressed in CHO cells using Cbz-Phe-His-Leu as substrate preincubated for 15 mins followed by substrate addition measured after 10 mins by Morrison's plot analysis
[2] = target: T1, Angiotensin-converting enzyme; experiment: Inhibition of human fully glycosylated ACE N-terminal domain expressed in CHO cells using Cbz-Phe-His-Leu as substrate preincubated for 15 mins followed by substrate addition measured after 10 mins by Morrison's plot analysis
[3] = target: T1, Angiotensin-converting enzyme; experiment: Inhibition of human fully glycosylated ACE N-terminal domain expressed in CHO cells using MCA-RPPGFSAFK(Dnp)-OH as substrate preincubated for 15 mins followed by substrate addition measured after 10 mins by fluorescence spectrophotometric analysis
[4] = target: T1, Angiotensin-converting enzyme; experiment: Inhibition of human fully glycosylated ACE C-terminal domain expressed in CHO cells using Cbz-Phe-His-Leu as substrate preincubated for 15 mins followed by substrate addition measured after 10 mins by fluorescence spectrophotometric analysis
[5] = target: T1, Angiotensin-converting enzyme; experiment: Inhibition of human fully glycosylated ACE N-terminal domain expressed in CHO cells using Cbz-Phe-His-Leu as substrate preincubated for 15 mins followed by substrate addition measured after 10 mins by fluorescence spectrophotometric analysis
[6] = target: T1, Angiotensin-converting enzyme; experiment: Inhibition of human fully glycosylated ACE C-terminal domain expressed in CHO cells using MCA-RPPGFSAFK(Dnp)-OH as substrate preincubated for 15 mins followed by substrate addition measured after 10 mins by fluorescence spectrophotometric analysis

T1 sequence (P12821 whole entry, the tested form may be a part): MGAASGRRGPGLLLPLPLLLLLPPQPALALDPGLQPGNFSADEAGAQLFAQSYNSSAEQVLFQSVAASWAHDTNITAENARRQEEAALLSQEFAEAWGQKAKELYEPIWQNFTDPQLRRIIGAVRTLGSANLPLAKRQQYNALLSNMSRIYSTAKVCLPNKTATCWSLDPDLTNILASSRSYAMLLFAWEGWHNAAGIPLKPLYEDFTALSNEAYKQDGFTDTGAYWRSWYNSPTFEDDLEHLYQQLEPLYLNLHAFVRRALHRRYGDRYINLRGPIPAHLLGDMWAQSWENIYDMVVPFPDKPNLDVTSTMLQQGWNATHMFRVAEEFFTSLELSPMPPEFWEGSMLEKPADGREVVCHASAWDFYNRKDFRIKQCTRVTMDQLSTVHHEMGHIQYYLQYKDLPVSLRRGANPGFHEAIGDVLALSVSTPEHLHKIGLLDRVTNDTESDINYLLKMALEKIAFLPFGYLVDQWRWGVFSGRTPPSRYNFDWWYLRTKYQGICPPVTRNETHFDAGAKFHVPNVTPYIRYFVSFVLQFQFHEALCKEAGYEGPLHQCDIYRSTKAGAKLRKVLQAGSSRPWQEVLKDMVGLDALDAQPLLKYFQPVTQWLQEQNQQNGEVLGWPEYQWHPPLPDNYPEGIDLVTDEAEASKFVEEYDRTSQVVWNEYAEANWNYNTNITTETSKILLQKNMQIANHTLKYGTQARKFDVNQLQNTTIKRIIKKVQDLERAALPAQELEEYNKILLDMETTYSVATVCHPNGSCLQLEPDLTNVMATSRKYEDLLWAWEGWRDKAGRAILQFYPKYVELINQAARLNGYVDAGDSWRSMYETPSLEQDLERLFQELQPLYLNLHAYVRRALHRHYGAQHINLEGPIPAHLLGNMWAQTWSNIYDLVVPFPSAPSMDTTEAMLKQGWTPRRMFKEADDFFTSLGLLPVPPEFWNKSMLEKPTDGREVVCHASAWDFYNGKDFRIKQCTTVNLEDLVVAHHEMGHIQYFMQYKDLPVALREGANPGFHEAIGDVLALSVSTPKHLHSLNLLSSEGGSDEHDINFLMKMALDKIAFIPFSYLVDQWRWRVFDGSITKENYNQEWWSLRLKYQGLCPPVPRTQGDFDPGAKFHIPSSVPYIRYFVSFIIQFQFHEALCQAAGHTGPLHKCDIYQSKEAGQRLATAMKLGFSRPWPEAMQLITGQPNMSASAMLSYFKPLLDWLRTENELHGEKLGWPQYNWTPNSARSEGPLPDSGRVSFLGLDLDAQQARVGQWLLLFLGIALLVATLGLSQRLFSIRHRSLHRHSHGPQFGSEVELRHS

Ki [1]	Ki [2]	IC50 [3]	IC50 [4]	IC50 [5]	IC50 [6]	SMILES
16 pM	15 pM	–	–	–	–	O=C(N[C@H]1CCS[C@H]2CCC[C@@H](C(=O)O)N2C1=O)[C@@H](S)Cc1ccccc1 [OMAPATRILAT]
–	–	2.1 µM	2.8 µM	2.2 µM	1.8 µM	O=C(N[C@H]1CCS[C@H]2CCC[C@@H](C(=O)O)N2C1=O)[C@H](Cc1ccccc1)SS[C@@H](Cc1ccccc1)C(=O)N[C@H]1CCS[C@H]2CCC[C@@H](C(=O)O)N2C1=O
